The values below come from patent US8344010B2, “Fused imidazole derivatives as TRPV3 antagonist” (Glenmark Pharmaceuticals S.A., priority 2008, dated 2013).

For this assay, the target named is T1, Human TRPV3 (Homo sapiens, UniProt Q8NET8).
T1 construct: expressed in transfected cells; host or cells: CHO cells (selected with G-418)
T1 sequence (Q8NET8 1-790): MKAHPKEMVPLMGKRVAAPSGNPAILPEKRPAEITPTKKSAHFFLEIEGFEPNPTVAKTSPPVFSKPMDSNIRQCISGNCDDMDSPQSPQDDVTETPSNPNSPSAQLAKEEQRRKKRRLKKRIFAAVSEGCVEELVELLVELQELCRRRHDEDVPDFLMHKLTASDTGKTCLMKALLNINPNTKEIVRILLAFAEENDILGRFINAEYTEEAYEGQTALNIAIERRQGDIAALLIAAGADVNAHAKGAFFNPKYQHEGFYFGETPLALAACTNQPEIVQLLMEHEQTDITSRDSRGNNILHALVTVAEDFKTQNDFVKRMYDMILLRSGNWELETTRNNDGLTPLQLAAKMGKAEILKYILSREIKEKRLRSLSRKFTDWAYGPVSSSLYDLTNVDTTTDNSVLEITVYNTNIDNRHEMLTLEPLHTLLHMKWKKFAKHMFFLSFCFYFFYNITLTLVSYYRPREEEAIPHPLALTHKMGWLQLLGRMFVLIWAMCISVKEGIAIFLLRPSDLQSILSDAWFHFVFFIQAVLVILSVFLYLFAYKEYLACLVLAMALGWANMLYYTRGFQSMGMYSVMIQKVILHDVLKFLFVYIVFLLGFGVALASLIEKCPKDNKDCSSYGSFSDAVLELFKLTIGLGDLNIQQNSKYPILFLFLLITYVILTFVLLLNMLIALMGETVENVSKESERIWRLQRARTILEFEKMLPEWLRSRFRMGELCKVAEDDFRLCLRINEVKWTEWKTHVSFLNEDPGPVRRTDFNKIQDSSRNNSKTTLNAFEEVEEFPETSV
As to the kind of experiment: 45Calcium uptake assay: inhibition of 2-APB induced cellular uptake of radioactive calcium. The assay is classed as cell-based. The following applies: human TRPV3 expressing CHO cells, 2-APB 500 μM; for inhibition at 1 µM: 1 μM test compound, read-out: Percentage Inhibition (1 μM); for inhibition at 10 µM: 10 μM test compound, read-out: Percentage Inhibition (10 μM); for IC50: class symbol. An excerpt: The illustrative examples of the present invention are screened for TRPV3 activity according to a modified procedure described in Tóth, A., Kedei, N., Wang, Y. and Blumberg, P. M. Life Sciences (2003), 73, 487-498. The screening of the compounds can be carried out by other methods and procedures known to a person skilled in the art. Such screening methods may be found in (a) Hu, H.-Z. et al. J. Biol. Chem. (2004), 279, 35741-35747; (b) Smith, G. D. et al. Nature (2002), 418, 186-190; (c) Peier, A. M. et al. Science (2002), 296, 2046-2049.
Screening for TRPV3 antagonist using the ^45Calcium uptake assay The inhibition of TRPV3 receptor activation was followed as inhibition of 2-aminoethoxydiphenylborate (2-APB) induced cellular uptake of radioactive calcium. Test compounds were dissolved in dimethyl sulfoxide (DMSO) to prepare 20 mM stock solution and then diluted using plain medium with DMEM/F-12 containing 1.8 mM CaCl2 to get desired concentration. Final concentration of DMSO in the reaction was 0.5% (v/v). Human TRPV3 expressing CHO cells were grown in DMEM/F-12 medium with 10% FBS, 1% penicillin-streptomycin solution, 400 μg/ml of G-418. Cells were seeded 24 h prior to the assay in 96 well plates so as to get ˜50,000 cells per well on the day of experiment. Cells were treated with test compounds for 10 minutes followed by addition of 2-APB at a final concentration of 500 μM and 5 μCi/ml^45Ca^+2 for 4 minutes. Cells were washed and lysed using buffer containing 1% Triton X-100, 0.1% deoxycholate and 0.1% SDS. Radioactivity in the lysate was measured in Packardt Top count after addition of liquid scintillant. Concentration response curves were plotted as a % of maximal response obtained in the absence of test antagonist. IC50 value was calculated from concentration response curve by nonlinear regression analysis using GraphPad PRISM software.
Percentage inhibition at concentrations of 1.0 μM and 10.0 μM are given in the table along with IC50 details for selected examples.

The term inhibition denotes how much of the control response was suppressed. Usually IC50 stands for the concentration that inhibits the measured activity by half.

On to `COc1cccc(/C=C/c2nc3cc(Cl)cnc3n2-c2ccc(C#N)cn2)c1OC1CCCC1` [Example 95, 6-{6-Chloro-2-[(E)-2-(2-(cyclopentyloxy)-3-methoxyphenyl)vinyl]-3H-imidazo[4,5-b]pyridin-3-yl}nicotinonitrile], for which the inhibition at 1 µM is 93.7%, the inhibition at 10 µM turned out to be 97.8% and the IC50 lay within 0.05 to 0.1 µM.

`COc1cccc(/C=C/c2nc3ccc[n+]([O-])c3n2-c2ccc(C#N)cn2)c1OC1CCCC1` [Example 92, 6 (2-{(E)-2-[2-(cyclopentyloxy)-3-methoxyphenyl]ethenyl}-4-oxido-3H-imidazo[4,5-b]pyridin-3-yl)pyridine-3-carbonitrile]: the inhibition at 1 µM is 3.02% and the inhibition at 10 µM worked out at 24.5%.

For the compound `CCC(CC)Oc1c(/C=C/c2nc3cc(F)c(F)cc3n2-c2ccc(C#N)cn2)cccc1OC` [Example 77, 6-{2-[(E)-2-(2-(1-ethylpropoxy)-3-methoxyphenyl)vinyl]-5,6-difluoro-1H-benzimidazol-1-yl}nicotinonitrile], the inhibition at 1 µM stood at 93.2%, the inhibition at 10 µM was found to be 98.7% and the IC50 fell in the range of 0.05 to 0.1 µM.

In the case of `COc1cccc(/C=C/c2nc3ccccc3n2Cc2ccc(F)cc2F)c1OCC1CC1` [Example 41, 1-(2,4-Difluorobenzyl)-2-[(E)-2-(2-cyclopropylmethoxy-3-methoxyphenyl)vinyl]-1H-benzimidazole], the inhibition at 1 µM was determined as 57.7% and the inhibition at 10 µM worked out at 86.5%.

As to `COc1cccc(/C=C/c2nc3ccccc3n2Cc2ccc(C#N)cc2)c1OCc1ccccc1F` [Example 44, 4-({2-[(E)-2-(2-{2-Fluorobenzyloxy}-3-methoxyphenyl)vinyl]-1H-benzimidazol-1-yl}methyl)benzonitrile], the inhibition at 1 µM worked out at 60% and the inhibition at 10 µM was determined as 87.1%.

With `COc1cccc(/C=C/c2nc3ccccc3n2Cc2ccc(C(C)(C)C)cc2)c1OC1CCCC1` [Example 40, 2-[(E)-2-(2-Cyclopentyloxy-3-methoxyphenyl)vinyl]-1-(4-tert-butylbenzyl)-1H-benzimidazole], the inhibition at 1 µM amounted to 11.7% and the inhibition at 10 µM came out at 12.3%.

`CCC(CC)Oc1c(/C=C/c2nc3ccccc3n2-c2ccc(C#N)cn2)cccc1OC` [Example 10, 6-{2-[(E)-2-(2-(1-Ethylpropoxy)-3-methoxyphenyl)vinyl]-1H-benzimidazol-1-yl}nicotinonitrile]: the inhibition at 1 µM was 96.6%, the inhibition at 10 µM is 99.1% and the IC50 lay in the range of 0.1 to 0.5 µM.

Consider `N#Cc1ccc(-n2c(/C=C/c3cccc(OC(F)F)c3OC3CCCC3)nc3cc(Cl)cnc32)nc1` [Example 103, 6-(6-Chloro-2-{(E)-2-[2-(cyclopentyloxy)-3-difluoromethoxyphenyl]vinyl}-3H-imidazo[4,5-b]pyridin-3-yl)nicotinonitrile], for which the inhibition at 1 µM was 98.3%, the inhibition at 10 µM was determined as 97.8% and the IC50 lay in the range of 0.05 to 0.1 µM.

As to `COc1cccc(/C=C/c2nc3cccnc3n2-c2ccc(C#N)cn2)c1OC1CCCC1` [Example 91, 6-{2-[(E)-2-(2-[Cyclopentyloxy]-3-methoxyphenyl)vinyl]-3H-imidazo[4,5-b]pyridin-3-yl}nicotinonitrile], the inhibition at 1 µM turned out to be 95.3%, the inhibition at 10 µM was found to be 99.7% and the half-inhibitory concentration (IC50) lay in the range of 0.1 to 0.5 µM.

Take `N#Cc1ccc(-n2c(/C=C/c3cccc(OC(F)F)c3OC3CCCC3)nc3cccnc32)nc1` [Example 98, 6-(2-{(E)-2-[2-(Cyclopentyloxy)-3-difluoromethoxyphenyl]vinyl}-3H-imidazo[4,5-b]pyridin-3-yl)nicotinonitrile]: the inhibition at 1 µM turned out to be 95.9%, the inhibition at 10 µM amounted to 100% and the IC50 was in the range of 0.1 to 0.5 µM.

As to `COc1ccc2nc(/C=C/c3cccc(OC)c3OC3CCCC3)n(-c3ccc(C#N)cn3)c2c1` [Example 51, 6-{2-[(E)-2-(2-Cyclopentyloxy-3-methoxyphenyl)vinyl]-6-methoxy-1H-benzimidazol-1-yl}nicotinonitrile], the inhibition at 1 µM turned out to be 96.2%, the inhibition at 10 µM amounted to 97.8% and the half-maximal inhibitory concentration (IC50) is 0.05 to 0.1 µM.

For the compound `COc1cccc(/C=C/c2nc3cccnc3n2-c2ccc(C#N)cn2)c1OCC1CC1` [Example 89, 6-{2-[(E)-2-(2-[Cyclopropylmethoxy]-3-methoxyphenyl)vinyl]-3H-imidazo[4,5-b]pyridin-3-yl}nicotinonitrile], the inhibition at 1 µM stood at 74.2%, the inhibition at 10 µM was determined as 96.6% and the IC50 was in the range of 0.1 to 0.5 µM.

Take `COc1cccc(/C=C/c2nc3ccccc3n2-c2ncc(C(F)(F)F)cc2Cl)c1OC1CCCC1` [Example 29, 1-[3-Chloro-5-(trifluoromethyl)pyridin-2-yl]-2-[(E)-2-(2-cyclopentyloxy-3-methoxyphenyl)vinyl]-1H-benzimidazole]: the inhibition at 1 µM amounted to 78.8%, the inhibition at 10 µM was 93.6% and the IC50 was 0.1 to 0.5 µM.

As to `CCCCOc1c(/C=C/c2nc3ccccc3n2-c2ccc(C#N)cn2)cccc1OC` [Example 8, 6-{2-[(E)-2-(2-Butoxy-3-methoxyphenyl)vinyl]-1H-benzimidazol-1-yl}nicotinonitrile], the inhibition at 1 µM turned out to be 91.6%, the inhibition at 10 µM was 97% and the half-maximal inhibitory concentration (IC50) lay in the range of 0.1 to 0.5 µM.

In the case of `FC(F)Oc1cccc(/C=C/c2nc3cccnc3n2-c2ccc(C(F)(F)F)cc2)c1OCC1CCC1` [Example 99, 2-[(E)-2-(2-Cyclobutylmethoxy-3-difluoromethoxyphenyl)vinyl]-3-[4-(trifluoromethyl)phenyl]-3H-imidazo[4,5-b]pyridine], the inhibition at 1 µM was found to be 89.5%, the inhibition at 10 µM came to 95.8% and the IC50 was above 0.5 µM.

On to `N#Cc1ccc(-n2c(/C=C/c3cccc(OC(F)F)c3OCC3CCC3)nc3cc(F)c(F)cc32)nc1` [Example 83, 6-(2-{(E)-2-[2-(Cyclobutylmethoxy)-3-difluoromethoxyphenyl]vinyl}-5,6-difluoro-1H-benzimidazol-1-yl)nicotinonitrile], for which the inhibition at 1 µM was 96.7%, the inhibition at 10 µM was determined as 97.7% and the IC50 was below 0.05 µM.

For `CCOC(=O)c1ccc(-n2c(/C=C/c3cccc(OC)c3OC3CCCC3)nc3cc(F)c(F)cc32)nn1` [Example 73, Ethyl 6-{2-[(E)-2-(2-cyclopentyloxy-3-methoxyphenyl)vinyl]-5,6-difluoro-1H-benzimidazol-1-yl}pyridazine-3-carboxylate], the inhibition at 1 µM was determined as 53.5% and the inhibition at 10 µM turned out to be 75.5%.

For the compound `COc1cccc(/C=C/c2nc3ccccc3n2-c2ccc(C(F)(F)F)cc2)c1OCC1CC1` [Example 37, 2-[(E)-2-(2-Cyclopropylmethoxy-3-methoxyphenyl)vinyl]-1-[4-(trifluoromethyl)phenyl]-1H-benzimidazole], the inhibition at 1 µM turned out to be 72.2%, the inhibition at 10 µM was determined as 84.6% and the IC50 fell in the range of 0.1 to 0.5 µM.

For the compound `COc1cccc(/C=C/c2nc3ccccc3n2-c2ccc([N+](=O)[O-])cn2)c1OC1CCCC1` [Example 4, 2-[(E)-2-(2-[Cyclopentyloxy]-3-methoxyphenyl)vinyl]-1-(5-nitropyridin-2-yl)-1H-benzimidazole], the inhibition at 1 µM stood at 50.9% and the inhibition at 10 µM turned out to be 81.7%.
